{"source": "paper PMC10354055", "about": "“An optimized Nurr1 agonist provides disease-modifying effects in Parkinson’s disease models” (Nature Communications, 2023)", "key": {"N27-A cells [1]": {"tested_on": "N27-A cells", "test": "Mitochondrial activity assay, Seahorse XFp, N27-A cells", "assay_type": "cell-based, rat", "set-up": "Seahorse time trace (OCR): unit not given here", "conditions": "for OCR changes after FCCP injection: MPP+ co-treatment, individual replicates (Supplementary Figure S1o); for Seahorse time trace (OCR) / ATP turnover: replicates; for ATP turnover: Fig. S1n, with MPP+", "experimental": "Mitochondrial activity was measured using the Seahorse XFp analyzer (Agilent Technologies) according to the manufacturer’s instruction. Briefly, cells were plated onto wells of a XFp cell culture miniplate and incubated in a 37 °C incubator overnight. The assay was performed after cells were equilibrated for 1 h in XF assay medium supplemented with 10 mM D-glucose, 5 mM sodium pyruvate, and 2 mM glutamax in a non-CO2 incubator. Mitochondrial activity was monitored through sequential injections of 1 μM oligomycin, 2 μM carbonyl cyanide-4 (trifluoromethoxy) phenylhydrazone (FCCP) and 0.5 μM rotenone/antimycin A to calculate basal respiration (= baseline oxygen consumption rate (OCR)−rotenone/antimycin A OCR), maximal respiration (= FCCP OCR−rotenone/antimycin A OCR), ATP turnover (= baseline OCR−oligomycin OCR), and OCR changes after FCCP injection (= FCCP OCR−oligomycin OCR). Each plotted value was normalized to total protein quantified using a Bradford protein assay (Bio-Rad) and analyzed using the Seahorse WAVE Desktop software (Agilent Technologies)."}, "N27-A cells [2]": {"tested_on": "N27-A cells", "conditions": "for LDH release (%): Fig. 2b, MPP+, CQ 100 µM, 4A7C-301 1 µM", "experimental": "SK-N-BE(2)C human neuroblastoma, BV2 mouse microglia (ATCC), HeLa and MN9D cell lines were cultured in Dulbecco’s Modified Eagle Medium (DMEM) supplemented with 10% fetal bovine serum (FBS) and 100 U /ml penicillin and 100 μg /ml streptomycin. The murine MN9D dopaminergic cell line was kindly provided by Drs. Michael Zigmond and Juliann Jaumotte from the University of Pittsburgh. The N27-A rat dopaminergic cell line was kindly provided by Dr. Curt Freed from the University of Colorado School of Medicine. […] For transactivity assay, SK-N-BE(2)C and N27-A cell lines were transfected with pCMV-fNurr1, pGAL-Nurr1(LBD), pGAL-Nor1(LBD) or pGAL-Nur77(LBD) and reporter construct (p4xNL3-Luc for fNurr1 or p8xUAS-Luc for LBD constructs). pRSV-β-gal was co-transfected as an internal control. Cells were lysed in a lysis buffer (25 mM Tris-phosphate (pH 7.8), 2 mM DTT, 2 mM DCTA (1,2-diaminocyclohexane-N,N,N′,N′-tetraacetic acid), 10% glycerol, and 1% Triton X-100) 24 h after transfection, followed by adding firefly luciferase substrate for luminescence detection measured by a luminometer plate reader (SpectraMax®; Molecular device). Nurr1 transactivity was normalized to β-galactosidase activity. […] For Nurr1 stability determination, MN9D cells were incubated with MPP^+ (0.5 mM) for 2, 4, 8, 16, 24, and 32 h, or were transduced with lentivirus expressing GFP only or αSyn (wild-type or A53T) then harvested 24, 48 and 72 h after transduction. For autophagolysosome (APL) formation assay, HeLa and N27-A cells were transfected with mRFP-GFP-LC3 (Addgene) using Lipofectamine 2000 (Invitrogen). The medium was changed with starvation medium (Earle’s Balanced Salt Solution; EBSS) 24 h after transfection for autophagy induction.\nCells were transfected with Nurr1 subcloned into pcDNA3.1 vector[23] for Nurr1 overexpression (OE). […] Nurr1 OE or KD by transfection was analyzed by Western blot.\nCellular oxidative stress was detected using the DCFDA Cellular ROS Assay Kit (Abcam) according to the manufacturer’s protocol. Briefly, cells seeded in black clear bottom 96 well plate were stained with DCFDA solution (20 µM) for 45 min at 37 °C. […] Cytotoxicity was determined by measuring lactate dehydrogenase (LDH) release into the culture medium using a LDH cytotoxicity detection kit (Roche)[33]. Absorbance was measured at 490 nm with a microplate reader and cytotoxicity was calculated as a percentage (%) relative to 1% TritonX-100 control. Cell viability was determined using 3-(4,5-dimethylthiazol-2-yl)-2,5-diphenyltetrazolium bromide (MTT) as previously described. Briefly, cells were incubated with 5 mg/ml of MTT (Sigma-Aldrich) solution for 3.5 h at 37 °C. MTT formazan crystals were dissolved in 10 times the volume of MTT solvent (4 mM HCl and 0.1% Nonidet P-40 in isopropanol) and the absorbance from the generated blue formazan was measured at 570 nm after 15 min incubation at room temperature. Cell viability was calculated as a percentage (%) of MTT reduction relative to vehicle control."}, "[3]": {"tested_on": "AAV-αSyn-induced male mice", "test": "Pole test, AAV-αSyn-induced PD model mice", "assay_type": "in vivo, mouse", "conditions": "αSynWT and αSynA53T mice; CQ 40, 4A7C-301 5 mg/kg/day i.p.", "source_text": "Adeno-associated viruses (AAVs) expressing GFP only or αSyn (wild-type or A53T) were kindly provided by Dr. Yoon Seong Kim from the University of Central Florida. Recombinant AAV vectors were produced using modified pAAV-IRES-hrGFP (Agilent) to express wild-type and mutant human αSyn under control of the CMV promoter. Viral particles (AAV2) were produced at the University of Iowa Viral Vector Core according to standard operating procedures (https://medicine.uiowa.edu/vectorcore/). […] AAV vectors were delivered into the substantia nigra unilaterally by stereotaxic surgery.\nMice were trained to descend a vertical metal rod wrapped with rough tape (80 cm high, 12 mm diameter) once per day for 2 days, and then the baseline was measured before the pole test (3 days before the MPTP injection or the first pole test at week 2). Mice were placed head-upward on the pole and total descent time was recorded."}}, "note": "Where “and” joins values, the source holds several entries; their conditions need not be identical. Equal values may be shown once. Read-outs that look alike come from different tables or passages of the source."}
{"compound": "CCN(CC)CCCC(C)Nc1ccnc2cc(Cl)ccc12", "note": "(stereo not drawn) [CQ, chloroquine]", "values": [{"measurement": "OXPHOS capacity reduced by MPP+ (in words)", "setting": "N27-A cells [1]; CQ 100 µM, 4A7C-301 1 µM", "value": "efficiently restored"}, {"measurement": "OCR changes after FCCP injection", "setting": "N27-A cells [1]; Control N27-A cells", "value": "8.55 pmol/min/µg protein and 7.31 pmol/min/µg protein and 2.32 pmol/min/µg protein and 23.52 pmol/min/µg protein"}, {"measurement": "Seahorse time trace (OCR)", "setting": "N27-A cells [1]; Fig. S1j/k, Control + MPP+, time 2 min", "value": "3.66 and 2.51 and 27.76"}, {"measurement": "Seahorse time trace (OCR)", "setting": "N27-A cells [1]; Fig. S1j/k, Control + MPP+, time 8 min", "value": "3.46 and 2.01 and 20.11"}, {"measurement": "Seahorse time trace (OCR)", "setting": "N27-A cells [1]; Fig. S1j/k, Control + MPP+, time 15 min", "value": "2.32 and 1.98 and 22.16 and 9.29"}, {"measurement": "Seahorse time trace (OCR)", "setting": "N27-A cells [1]; Fig. S1j/k, Control + MPP+, time 21 min", "value": "0.27 and 19.75 and 5.17"}, {"measurement": "Seahorse time trace (OCR)", "setting": "N27-A cells [1]; Fig. S1j/k, Control + MPP+, time 28 min", "value": "0.58 and 1.26 and 17.08 and 5.33"}, {"measurement": "Seahorse time trace (OCR)", "setting": "N27-A cells [1]; Fig. S1j/k, Control + MPP+, time 34 min", "value": "0.71 and 18.32 and 7.16"}, {"measurement": "Seahorse time trace (OCR)", "setting": "N27-A cells [1]; Fig. S1j/k, Control + MPP+, time 41 min", "value": "7.58 and 3.41 and 40.6 and 13.72"}, {"measurement": "Seahorse time trace (OCR)", "setting": "N27-A cells [1]; Fig. S1j/k, Control + MPP+, time 47 min", "value": "6.82 and 3.28 and 39.31"}, {"measurement": "Seahorse time trace (OCR)", "setting": "N27-A cells [1]; Fig. S1j/k, Control + MPP+, time 54 min", "value": "6.13 and 3.21 and 37.92 and 10.02"}, {"measurement": "Seahorse time trace (OCR)", "setting": "N27-A cells [1]; Fig. S1j/k, Control + MPP+, time 61 min", "value": "0.03 and 1.24 and 16.5 and 4.04"}, {"measurement": "Seahorse time trace (OCR)", "setting": "N27-A cells [1]; Fig. S1j/k, Control + MPP+, time 67 min", "value": "0.55 and 1.35 and 12.69 and 5.31"}, {"measurement": "Seahorse time trace (OCR)", "setting": "N27-A cells [1]; Fig. S1j/k, Control + MPP+, time 74 min", "value": "1.39 and 17 and 5.99"}, {"measurement": "Seahorse time trace (OCR)", "setting": "N27-A cells [1]; Fig. S1j, Nurr1 OE + MPP+, time 2 min", "value": "26.25 and 15.29"}, {"measurement": "Seahorse time trace (OCR)", "setting": "N27-A cells [1]; Fig. S1j, Nurr1 OE + MPP+, time 8 min", "value": "18.52 and 15.98"}, {"measurement": "Seahorse time trace (OCR)", "setting": "N27-A cells [1]; Fig. S1j, Nurr1 OE + MPP+, time 15 min", "value": "20.57 and 30.55 and 13.93"}, {"measurement": "Seahorse time trace (OCR)", "setting": "N27-A cells [1]; Fig. S1j, Nurr1 OE + MPP+, time 21 min", "value": "5.95 and 6.99 and 4.75 and 6.7"}, {"measurement": "Seahorse time trace (OCR)", "setting": "N27-A cells [1]; Fig. S1j, Nurr1 OE + MPP+, time 28 min", "value": "5.18 and 6.25 and 5.44 and 7.19"}, {"measurement": "Seahorse time trace (OCR)", "setting": "N27-A cells [1]; Fig. S1j, Nurr1 OE + MPP+, time 34 min", "value": "4.78 and 5.8 and 5.34 and 7.96"}, {"measurement": "Seahorse time trace (OCR)", "setting": "N27-A cells [1]; Fig. S1j, Nurr1 OE + MPP+, time 41 min", "value": "28.78 and 44.27 and 30.42"}, {"measurement": "Seahorse time trace (OCR)", "setting": "N27-A cells [1]; Fig. S1j, Nurr1 OE + MPP+, time 47 min", "value": "28.4 and 36.09 and 14.17"}, {"measurement": "Seahorse time trace (OCR)", "setting": "N27-A cells [1]; Fig. S1j, Nurr1 OE + MPP+, time 54 min", "value": "26.28 and 35.06 and 18.57 and 28.22"}, {"measurement": "Seahorse time trace (OCR)", "setting": "N27-A cells [1]; Fig. S1j, Nurr1 OE + MPP+, time 61 min", "value": "4.76 and 5.21 and 0.65 and 4.3"}, {"measurement": "Seahorse time trace (OCR)", "setting": "N27-A cells [1]; Fig. S1j, Nurr1 OE + MPP+, time 67 min", "value": "4.21 and 5.44 and 0.96 and 4.79"}, {"measurement": "Seahorse time trace (OCR)", "setting": "N27-A cells [1]; Fig. S1j, Nurr1 OE + MPP+, time 74 min", "value": "4.26 and 6.26 and 5.01"}, {"measurement": "Seahorse time trace (OCR)", "setting": "N27-A cells [1]; Fig. S1k, Nurr1 KD + MPP+, time 2 min", "value": "19.09 and 7.42 and 5.75 and 10.38"}, {"measurement": "Seahorse time trace (OCR)", "setting": "N27-A cells [1]; Fig. S1k, Nurr1 KD + MPP+, time 8 min", "value": "18.47 and 7.53 and 4.86 and 8.38"}, {"measurement": "Seahorse time trace (OCR)", "setting": "N27-A cells [1]; Fig. S1k, Nurr1 KD + MPP+, time 15 min", "value": "15.57 and 7.6 and 4.41 and 7.39"}, {"measurement": "Seahorse time trace (OCR)", "setting": "N27-A cells [1]; Fig. S1k, Nurr1 KD + MPP+, time 21 min", "value": "1.43 and 1.21"}, {"measurement": "Seahorse time trace (OCR)", "setting": "N27-A cells [1]; Fig. S1k, Nurr1 KD + MPP+, time 28 min", "value": "13.44 and 8.97 and 1.24"}, {"measurement": "Seahorse time trace (OCR)", "setting": "N27-A cells [1]; Fig. S1k, Nurr1 KD + MPP+, time 34 min", "value": 8.6}, {"measurement": "ATP turnover", "setting": "N27-A cells [1]; Control cells", "value": "6.76 pmol/min/µg protein and 3.39 pmol/min/µg protein and 1.42 pmol/min/µg protein and 10.68 pmol/min/µg protein"}, {"measurement": "ATP turnover", "setting": "N27-A cells [1]; Nurr1 KD cells", "value": "7.63 pmol/min/µg protein and -1 pmol/min/µg protein and 4.86 pmol/min/µg protein and 9.17 pmol/min/µg protein"}, {"measurement": "ATP turnover", "setting": "N27-A cells [1]; Nurr1 OE cells", "value": "19.32 pmol/min/µg protein and 24.75 pmol/min/µg protein and 13.77 pmol/min/µg protein and 18.27 pmol/min/µg protein"}, {"measurement": "OCR changes after FCCP injection", "setting": "N27-A cells [1]; Nurr1 KD N27-A cells", "value": "12.59 pmol/min/µg protein and 4.43 pmol/min/µg protein and 9.84 pmol/min/µg protein and 17.76 pmol/min/µg protein"}, {"measurement": "OCR changes after FCCP injection", "setting": "N27-A cells [1]; Nurr1 OE N27-A cells", "value": "24 pmol/min/µg protein and 37.47 pmol/min/µg protein and 12.22 pmol/min/µg protein and 23.73 pmol/min/µg protein"}, {"measurement": "LDH release (%)", "setting": "N27-A cells [2]; Control", "value": "38.0191% and 38.0584% and 38.4906% and 38.2156%"}, {"measurement": "LDH release (%)", "setting": "N27-A cells [2]; Nurr1 KD", "value": "55.7041% and 55.6609% and 55.7395% and 55.7788%"}, {"measurement": "LDH release (%)", "setting": "N27-A cells [2]; Nurr1 OE", "value": "24% and 23.9568% and 23.9529% and 23.9254%"}, {"measurement": "MPP+-induced cytotoxicity (in words)", "setting": "N27-A cells [2]; N27-A and MN9D cells, dose-dependent", "value": "significantly decreased"}, {"measurement": "motor deficits, pole test (in words)", "setting": "[3]", "value": "partial recovery"}]}
